The subject of one assay is BA2930. The format is biochemical, Bacillus anthracis str. Ames. To be noted: pH 7.5.
Another assay deals with wild type (wt) BA2930 (Bacillus anthracis, UniProt A0A3P1UCA6). The format is binding.

One may read the Kd as the constant that tells how readily two partners part at equilibrium. Low values mean a tighter complex, high ones a looser complex.

wild type (wt) BA2930, sequence (A0A3P1UCA6 1-265): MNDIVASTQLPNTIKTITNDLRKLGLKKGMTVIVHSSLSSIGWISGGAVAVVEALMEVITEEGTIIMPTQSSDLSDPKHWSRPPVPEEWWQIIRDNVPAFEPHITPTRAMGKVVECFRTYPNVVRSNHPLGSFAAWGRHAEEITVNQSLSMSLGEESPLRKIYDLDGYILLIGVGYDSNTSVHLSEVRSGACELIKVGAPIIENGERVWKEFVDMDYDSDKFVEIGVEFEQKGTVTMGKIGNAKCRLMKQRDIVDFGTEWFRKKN

With `NC[C@H]1O[C@H](O[C@H]2[C@H](O)[C@@H](O[C@H]3O[C@H](CO)[C@@H](O)[C@H](N)[C@H]3O)[C@H](N)C[C@@H]2N)[C@H](O)[C@@H](O)[C@@H]1O` [kanamycin], the “chemical modification by the enzyme (TLC)” value (“chemical modification” for short) in the assay with BA2930 is “modified by the enzyme”.

In the case of `NC[C@H]1O[C@H](O[C@H]2[C@H](O)[C@@H](O[C@H]3O[C@H](CO)[C@@H](O)[C@H](N)[C@H]3O)[C@H](N)C[C@@H]2N)[C@H](N)C[C@@H]1O` [tobramycin], the “chemical modification” value in the assay with BA2930 is reported as “modified by the enzyme”.

For `CC(=O)SCCNC(=O)CCNC(=O)[C@H](O)C(C)(C)COP(=O)(O)OP(=O)(O)OC[C@H]1O[C@@H](n2cnc3c(N)ncnc32)[C@H](O)[C@@H]1OP(=O)(O)O` [AcCoA, Acetyl Coenzyme A], at wild type (wt) BA2930, the “N (stoichiometry)” value was determined as 1.140±0.013, the ΔH is -90.83 ± 1.92 kJ/mol and the “−TΔS” value is -65.31 kJ/mol. Moreover, on wild type (wt) BA2930 (pH 7.5), binding was put at a Kd of 33.4 ± 2.53 µM.

As to `CC(C)(COP(=O)(O)OP(=O)(O)OC[C@H]1O[C@@H](n2cnc3c(N)ncnc32)[C@H](O)[C@@H]1OP(=O)(O)O)[C@@H](O)C(=O)NCCC(=O)NCCS` [CoA, Coenzyme A], on wild type (wt) BA2930, the “N (stoichiometry)” value worked out at 1.000±0.031, the ΔH was -52.17 ± 2.22 kJ/mol and the “−TΔS” value was -22.4 kJ/mol.

Regarding `NCC[C@H](O)C(=O)N[C@@H]1C[C@H](N)[C@@H](O[C@H]2O[C@H](CN)[C@@H](O)[C@H](O)[C@H]2O)[C@H](O)[C@H]1O[C@H]1O[C@H](CO)[C@@H](O)[C@H](N)[C@H]1O` [Amikacin], the “chemical modification” value with BA2930 was “modified by the enzyme”.
